Data published in patent publication US8883856B2, “Compositions and methods for the treatment of inflammatory diseases using topoisomerase inhibitors” (priority 2000, dated 2014).

Columns and labels:
[1] = Encapsulation efficiency of drug in polymer microspheres; assay type: physicochemical
Procedure: Camptothecin (Sigma) was dissolved in a 5% (w/v) solution of poly(L-lactic acid) (2K molecular weight, Polysciences) in various ratios of drug to polymer (from 0.5:100 to 8:100 (w/w). Ten ml of each of these solutions were pipetted into 100 ml of a 2.5% (w/v) solution of poly vinyl alcohol (PVA, mol wt 13-21K Aldrich) with over head stirring at 500 rpm. After two hours stirring the PVA/microsphere suspension was poured through 90 um then 50 um sieves to collect the 50-90 um fraction of microspheres. These spheres were then washed in distilled water three times and dried under vacuum. The dried spheres were obtained in high yields (over 50% of the initial polymer was recovered as microspheres in the 50-90 um size range). […] Encapsulation efficiency was measured by dissolving microspheres in 1 ml of dichlomethane, extracting the drug into a 60/40 (v/v) acetonitrile water mixture and analysis by visible absorbance at 370 nm. The encapsulation efficiency of the drug in the polymer varied with the initial ratio of drug to polymer with high ratios resulting in a high level of encapsulation.
Plumbagin (Sigma) was dissolved in a 5% (w/v) solution of poly (L-lactic acid) (2K molecular weight, Polysciences) to give a final ratio of drug to polymer of 1:10 (w/w). Ten ml of this solution was pipetted into 100 ml of a 2.5% (w/v) solution of poly vinyl alcohol (PVA, mol wt 13-21K Aldrich) with over head stirring at 500 rpm. After two hours stirring the PVA/microsphere suspension was poured through 90 um then 50 um sieves to collect the 50-90 um fraction of microspheres. These spheres were then washed in distilled water three times and dried under vacuum. The dried spheres were obtained in high yields with over 50% of the initial polymer being recovered in microspheres in the 50-90 um size range. The microspheres were dense yellow in colour indicating high encapsulation efficiency of the drug plumbagin. The encapsulation efficiency was measured by dissolving the microspheres in 1 ml of dichlomethane, extracting the drug into a 60/40 (v/v) acetonitrile water mixture and analysis by visible absorbance at 420 nm. The encapsulation efficiency of the drug in the polymer was 80%.
(§1) Ten ml of each solution was pipetted into 100 ml of a 2.5% (w/v) solution of poly vinyl alcohol (PVA, mol wt 13-21K Aldrich) with over head stirring at 500 rpm. After two hours stirring the PVA/microsphere suspension was poured through 90 um then 50 um sieves to collect the 50-90 um fraction of microspheres. These spheres were then washed in distilled water three times and dried under vacuum. The dried spheres were obtained in high yields (over 50% of the initial polymer was recovered as microspheres in the 50-90 um size range).
as §1, with “vacuum.” for “vacuum. The dried spheres were obtained in high yields (over 50% of the initial polymer was recovered as microspheres in the 50-90 um size range).”

[2] = Perivascular injection of polymeric paste at the rat carotid artery; assay type: in vivo, Wistar rats; settings: 1% loading in 40% Triblock / 60% MePEG350 paste, 0.1 to 0.2 ml
Excerpt: Wistar rats weighing 400 g to 500 g were anesthetized with halothane. A vertical incision was made over the trachea and the left external carotid artery was exposed. Connective tissue around the left common carotid artery was left untouched. Two ligatures were placed around the external carotid artery and an arteriotomy was made between them. A 2 French Fogarty balloon was introduced into the external carotid artery and pushed into the left common carotid artery and the balloon was inflated with saline. The balloon was passed up and down the entire length of the carotid artery three times to stretch the vessel and denude the endothelium. The balloon was removed and the ligatures tied off on the external carotid artery. Camptothecin (1% loading) in a polymeric paste (40% Triblock (Angiotech pharmaceuticals) and 60% Methoxypolyethylene glycol (MePEG350)) or the carrier paste alone was injected through a 24 G angiocatheter between a distal segment of the common carotid artery and the surrounding connective tissue. Typically, 0.1 to 0.2 ml of paste was applied around the artery in 4 injections in order to cover the whole circumference of the vessel on a length of approximately 1 cm. The wound was then closed and the animals recovered.

[3] = tested on: neutrophils; assay: Neutrophil superoxide anion generation (cytochrome c reduction); assay type: cell-based, human; settings: CPPD crystals or fMLP
Procedure: Superoxide anion concentrations were measured using the superoxide dismutase inhibitable reduction of cytochrome c assay. Twenty five mg of crystals or fMLP (final concentration 1 uM with cytochalasin B at 0.5 uM) were placed in 1.5 mL capped Eppendorf tubes and warmed to 37° C. To the tubes were added 0.5 mL of cells at 37° C. and ferricytochrome c (horse heart, type 3) (final concentration 1.2 mg/mL) and the cells were activated by shaking the capped tubes. At appropriate times, tubes were centrifuged at 10,000×g for 10 seconds and the supernatant collected for spectrophotometric assay at 550 nm. Control tubes were set up under the same conditions with the inclusion of superoxide dismutase at 600 units per mL. Plumbagin inhibited the generation of superoxide anions from neutrophils activated by both CPPD crystals or fMLP as shown in FIG. 3.

[4] = tested on: neutrophils; assay: Neutrophil degranulation (myeloperoxidase release); assay type: cell-based, human; settings: CPPD crystals and fMLP
Procedure: Eppendorf tubes containing either 25 mg of CPPD or 1 uM fMLP (with 0.5 uM cytochalasin B) were maintained at 37° C. To the tubes were added 0.5 mL of cells at 37° C. followed by shaking to initiate the reactions. At appropriate times, tubes were centrifuged at 10,000× g for 10 s and 0.4 mL of supernatant was stored at −20° C. for later assay. Myeloperoxidase (MPO) activity was measured by the increase in absorbance at 450 nm that accompanies the oxidation of o-dianisidine. Dianisidine (7.8 mg) was dissolved in 100 mL of 0.1 M citrate buffer, pH 5.5 and to a 1 mL cuvette were added 0.89 mL of the dianisidine solution, followed by […], […] and […]. MPO activity was determined from the change in absorbance (450 nm) per minute, (ΔA450), using the following relationship: Dianisidine oxidation (nmol/min)=50 ΔA450

[5] = Example 19 microspheres 50-90 um, drug to polymer 1:40 (beta-lapachone) or 1:100 (etoposide, doxorubicin)
[6] = polycaprolactone microspheres 50-90 um, drug to polymer 1:50

Row | SMILES | encapsulation efficiency of the drug in the polymer [1, 5] [%] | encapsulation efficiency of the drug in the polymer [1, 6] [%] | also measured
1 | CC1(C)CCC2=C(O1)c1ccccc1C(=O)C2=O [beta-lapachone] | 97 |  | 
2 | CC[C@@]1(O)C(=O)OCc2c1cc1n(c2=O)Cc2cc3ccccc3nc2-1 [camptothecin] |  |  | adverse effects of perivascular paste injection [2]: no adverse effects noted in any animal
3 | COc1cccc2c1C(=O)c1c(O)c3c(c(O)c1C2=O)C[C@@](O)(C(=O)CO)C[C@@H]3O[C@H]1C[C@H](N)[C@H](O)[C@H](C)O1 [doxorubicin] | 95 |  | 
4 | CC1=CC(=O)c2ccccc2C1=O [menadione] |  | 73 | 
5 | CC1=CC(=O)c2c(O)cccc2C1=O [plumbagin] |  | 85 | generation of superoxide anions from activated neutrophils [3]: inhibited; neutrophil degranulation (myeloperoxidase release) [4]: inhibited; encapsulation efficiency of the drug in the polymer ([1]; poly(L-lactic acid) 2K microspheres 50-90 um, drug to polymer 1:10): 80%
